The values below come from patent US10729815B2, “Combined treatment for nerve injuries” (Ramot at Tel-Aviv University Ltd., priority 2016, dated 2020).

The test system of assay [1] is astrocytes cultures of human brain cells, derived from astrocytoma, U-87 MG. The assay can be described thus: In-vitro effect of anti-gliotic agents on astrocytes survival (cell counting). The settings on record: 48 h. Type of assay: cell-based. Here is the method: (§1) Cell culture—Astrocytes cultures of human brain cells, derived from astrocytoma, U-87 MG (ATCC® HTB-14™, American Type Culture Collection, Rockville, Md., USA) were cultured in growth medium [10% Fetal Bovine Serum (FBS) and 1% Penicillin-Streptomycin solution (PS) in Minimum Essential Medium (MEM)]. […] The cell suspension (5×10^5 cells/well) was seeded into a 6-well plate (500 μl/well) containing 1.5 ml/well of assay medium, incubated for 24±1 hours at […], 5% CO2, and then examined microscopically. Following, at 90% cell confluence, the plates were treated according to the following groups:
(§2) The anti-gliotic agents were added as follows: Chondroitinase ABC (0.2 U/ml), Collagenase (2 mg, 50 μl), β-D-Xyloside (2.5 mM, 20 μl), MMPs-3 (0.5 μg, 20 μl), Anti TGFβ 1,2&3 (10 μg, 20 μl), Mitomycin C (50 μg, 25 μl), ACE human recombinant (0.5 μg, 25 μl) and Anti-Nogo A (5 U, 25 μl).

For assay [2] the test system is unchanged. Nature of the assay: In-vitro effect of anti-gliotic agents on 35S-GAG accumulation in activated astrocytes. Type of assay: cell-based. The following applies: 48 h. The method, then:
as §1, §2
Astrocytes activation causes glycosaminoglycans (GAGs) accumulation in cultures, both intracellularly, pericellularly and extracellularly. Therefore, GAGs can serve as a tracer for either formation or elimination of the scar barrier.

Where [3] appears, read: astrocytes activated with Bt2-cAMP 1 mM + theophylline 0.25 mM plus the anti-gliotic agent.
Where [4] appears, read: activated with Bt2-cAMP + theophylline plus anti-gliotic agent.
Where [5] appears, read: activated with Bt2-cAMP + theophylline plus anti-gliotic agent, values multiplied 6 times (normalized to vital cell survivors).

`CCCC(=O)Nc1ncnc2c1ncn2[C@@H]1O[C@@H]2COP(=O)([O-])O[C@H]2[C@H]1OC(=O)CCC.[Na+]` [Bt2-cAMP, N6,2′-O-Dibutyryladenosine 3′,5′-cyclic monophosphate, sodium salt, reference compound]: the “% of cells (cell percentage in astrocyte cultures relative to untreated cultures)” value in assay [1] (activator(s) only, no anti-gliotic agent, Bt2-cAMP 1 mM, theophylline 0.25 mM) is reported as 32.8%. For the same molecule, the “Isolated 35S-GAGs Average + SD” value in assay [2] (activator(s) only, theophylline well multiplied 6 times (normalized to vital cell survivors)) is recorded as 34,872 + 2,946.

Regarding `O=[N+]([O-])c1ccc(O[C@@H]2OC[C@@H](O)[C@H](O)[C@H]2O)cc1` [β-D-Xyloside, 4-Nitrophenyl β-D-xylopyranoside, reference compound], the “% of cells (cell percentage in astrocyte cultures relative to untreated cultures)” value in assay [1] (setting [3]) was determined as 54.7%. Besides, the “% of Isolated 35S-GAGs (relative to the theophylline control)” value in assay [2] (setting [4]) turned out to be 78.5%. In addition, in assay [2] (setting [5]), the “Isolated 35S-GAGs Average + SD” value is 61,016 + 21,506.

Consider Chondroitinase ABC, for which the “% of cells (cell percentage in astrocyte cultures relative to untreated cultures)” value in assay [1] (setting [3]) turned out to be 33.1%. In addition, the “% of Isolated 35S-GAGs (relative to the theophylline control)” value in assay [2] (setting [4]) came to 5.5%. Also, in assay [2] (setting [5]), the “Isolated 35S-GAGs Average + SD” value is reported as 4,299 + 939.

For Collagenase, the “% of cells (cell percentage in astrocyte cultures relative to untreated cultures)” value in assay [1] (setting [3]) is 39.1%. In assay [2] (setting [4]), the “% of Isolated 35S-GAGs (relative to the theophylline control)” value was 66.1%. Moreover, the “Isolated 35S-GAGs Average + SD” value in assay [2] (setting [5]) is given as 51,371 + 10,556.

On to “MMPs-3: MMP-3-Matrix Metalloproteinase, human Stromlysin STR1 (Sigma SRP 7783)”, for which the “% of cells (cell percentage in astrocyte cultures relative to untreated cultures)” value in assay [1] (setting [3]) was 23.2%. Further, the “% of Isolated 35S-GAGs (relative to the theophylline control)” value in assay [2] (setting [4]) is reported as 82.3%. Besides, the “Isolated 35S-GAGs Average + SD” value in assay [2] (setting [5]) is on record as 63,941 + 11,374.

B1: ACE human recombinant: Angiotensin Converting Enzyme Human recombinant (Biotest 929-ZN) (protein, UniProt P12821 30-1306, looked up)
Angiotensin-converting enzyme: LDPGLQPGNFSADEAGAQLFAQSYNSSAEQVLFQSVAASWAHDTNITAENARRQEEAALLSQEFAEAWGQKAKELYEPIWQNFTDPQLRRIIGAVRTLGSANLPLAKRQQYNALLSNMSRIYSTAKVCLPNKTATCWSLDPDLTNILASSRSYAMLLFAWEGWHNAAGIPLKPLYEDFTALSNEAYKQDGFTDTGAYWRSWYNSPTFEDDLEHLYQQLEPLYLNLHAFVRRALHRRYGDRYINLRGPIPAHLLGDMWAQSWENIYDMVVPFPDKPNLDVTSTMLQQGWNATHMFRVAEEFFTSLELSPMPPEFWEGSMLEKPADGREVVCHASAWDFYNRKDFRIKQCTRVTMDQLSTVHHEMGHIQYYLQYKDLPVSLRRGANPGFHEAIGDVLALSVSTPEHLHKIGLLDRVTNDTESDINYLLKMALEKIAFLPFGYLVDQWRWGVFSGRTPPSRYNFDWWYLRTKYQGICPPVTRNETHFDAGAKFHVPNVTPYIRYFVSFVLQFQFHEALCKEAGYEGPLHQCDIYRSTKAGAKLRKVLQAGSSRPWQEVLKDMVGLDALDAQPLLKYFQPVTQWLQEQNQQNGEVLGWPEYQWHPPLPDNYPEGIDLVTDEAEASKFVEEYDRTSQVVWNEYAEANWNYNTNITTETSKILLQKNMQIANHTLKYGTQARKFDVNQLQNTTIKRIIKKVQDLERAALPAQELEEYNKILLDMETTYSVATVCHPNGSCLQLEPDLTNVMATSRKYEDLLWAWEGWRDKAGRAILQFYPKYVELINQAARLNGYVDAGDSWRSMYETPSLEQDLERLFQELQPLYLNLHAYVRRALHRHYGAQHINLEGPIPAHLLGNMWAQTWSNIYDLVVPFPSAPSMDTTEAMLKQGWTPRRMFKEADDFFTSLGLLPVPPEFWNKSMLEKPTDGREVVCHASAWDFYNGKDFRIKQCTTVNLEDLVVAHHEMGHIQYFMQYKDLPVALREGANPGFHEAIGDVLALSVSTPKHLHSLNLLSSEGGSDEHDINFLMKMALDKIAFIPFSYLVDQWRWRVFDGSITKENYNQEWWSLRLKYQGLCPPVPRTQGDFDPGAKFHIPSSVPYIRYFVSFIIQFQFHEALCQAAGHTGPLHKCDIYQSKEAGQRLATAMKLGFSRPWPEAMQLITGQPNMSASAMLSYFKPLLDWLRTENELHGEKLGWPQYNWTPNSARSEGPLPDSGRVSFLGLDLDAQQARVGQWLLLFLGIALLVATLGLSQRLFSIRHRSLHRHSHGPQFGSEVELRHS
As to B1, in assay [1] (setting [3]), the “% of cells (cell percentage in astrocyte cultures relative to untreated cultures)” value was 70.4%. Further, in assay [2] (setting [4]), the “% of Isolated 35S-GAGs (relative to the theophylline control)” value is on record as 22.9%. The “Isolated 35S-GAGs Average + SD” value in assay [2] (setting [5]) was 17,814 + 2,201.
